Target: T1, Polθ polymerase domain (amino acids 1792-2590) (Homo sapiens, UniProt O75417)
T1 construct: 10×Histidine-SUMO (N, cleaved yes); made in house; host or cells: E. coli
T1 sequence (O75417 1792-2590): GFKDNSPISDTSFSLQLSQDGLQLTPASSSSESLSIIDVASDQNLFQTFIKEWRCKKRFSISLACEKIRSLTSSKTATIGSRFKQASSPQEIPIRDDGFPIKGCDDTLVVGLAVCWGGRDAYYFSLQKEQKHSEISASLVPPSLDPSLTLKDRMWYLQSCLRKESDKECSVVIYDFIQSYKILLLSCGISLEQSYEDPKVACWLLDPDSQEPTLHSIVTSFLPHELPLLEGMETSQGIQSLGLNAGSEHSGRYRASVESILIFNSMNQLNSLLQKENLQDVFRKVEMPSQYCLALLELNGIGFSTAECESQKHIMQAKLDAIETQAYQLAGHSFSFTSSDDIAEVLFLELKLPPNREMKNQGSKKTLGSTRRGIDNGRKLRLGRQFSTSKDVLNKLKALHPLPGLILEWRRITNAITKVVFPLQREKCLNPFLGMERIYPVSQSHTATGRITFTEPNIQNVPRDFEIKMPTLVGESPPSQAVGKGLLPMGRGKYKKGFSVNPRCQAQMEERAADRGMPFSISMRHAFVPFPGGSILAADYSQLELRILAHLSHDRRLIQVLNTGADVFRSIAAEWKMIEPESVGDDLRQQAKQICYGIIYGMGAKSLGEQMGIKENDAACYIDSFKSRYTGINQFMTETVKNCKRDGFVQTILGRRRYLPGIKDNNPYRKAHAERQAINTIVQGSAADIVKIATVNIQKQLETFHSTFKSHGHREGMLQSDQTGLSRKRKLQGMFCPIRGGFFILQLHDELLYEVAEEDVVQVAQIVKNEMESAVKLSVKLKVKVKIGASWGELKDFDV
Assay: Picogreen assay of Polθ polymerase activity
Type: biochemical
Conditions: 12-point concentration response, 90 minutes incubation at room temperature, 8 nM Polθ in 2×polymerase mixture, read-out: PolQ IC50
From the text: The DNA sequence of the polQ gene (Genebank ID #NM 199420.4) was chemically synthesized. The DNA sequence encoding the polymerase domain (amino acids 1792-2590) was subcloned into an E. coli expression plasmid, resulting in the fusion of 10×Histidine-SUMO tag at the N terminus of the polymerase domain.
The protein was expressed in E. coli. and purified using a 2-step IMAC (immobilized metal chelate affinity chromatography) procedure. Briefly stated, the overexpressed E. coli lysate was subjected to Ni-NTA purification, and an N-terminal tag was digested by a SUMO protease. Then, the excised fragment of 10×Histidine-SUMO tag was removed using Ni-NTA beads. The resulting protein was used for the Picogreen assay, as described below.
The methods of DNA complex preparation were slightly modified from the protocol previously reported (Zatreanu et al., 2021, Nature Communications, 12:3636). Briefly stated, polθ substrate was prepared by mixing Oligo1 (5′-GCG GCT GTC ATA AG-3′) and Oligo2 (5′-GCTACATTGACAATGGCATCAAATCTCAGATTGCGTCTTATGACAGCCGCG-3′) in an annealing buffer (20 mM Tris-Cl, pH 7.5, 50 mM NaCl) to the final concentration of 22 uM and 20 uM, respectively. The Polθ product was prepared by mixing Oligo3 (5′-CGCGGCTGTCATAAGACGCAATCTGAGATTTGATGCCATTGTCAATGTAGC-3′) and Oligo2 (5′-GCTACATTGACAATGGCATCAAATCTCAGATTGCGTCTTATGACAGCCGCG-3′) to the final concentration of 20 uM. The polθ product was used for the top signal control in the Picogreen assay. Both substrate and product were heated to 95° C. […] and cooled slowly to room temperature.
To evaluate the ability of test compounds to inhibit the activity of polθ in vitro, a Picogreen assay was performed to measure polθ IC50 (nM).
The reactions were performed at room temperature in an assay buffer (25 mM Tris-HCl, pH 7.5, 12.5 mM NaCl, 0.5 mM MgCl2, 5% (v/v) glycerol, 0.01% (v/v) Triton X-100, 0.01% (w/v) Bovine serum albumin, 1 mM DTT). Thirty microliters of 2×polymerase mixture (8 nM Polθ enzyme in an assay buffer) were distributed to 96 well plates, test compounds were prepared by dilution in 100% DMSO to obtain the correct dose range for a 12-point concentration response and 1 μl was dispensed into each well, and then 30 microliters of 2×substrate mix (100 nM DNA and 40 uM dNTPs in an assay buffer) was added. After 90 minutes of incubation, the reaction was stopped and DNA was stained by adding 40 microliters of Picogreen solution (1:80 dilution of Picogreen, Invitrogen, Cat #P7581, 25 mM Tris-HCl, pH 7.5, 10 mM EDTA, pH 7.5).
The fluorescence intensity was measured at excitation/emission=485 nm/520 nm using an Ensight plate reader (Perkin Elmer). The data was analyzed by GraphPad Prism software (Version 8.4.3) to calculate IC50.

Structure (SMILES) | IC50
Cc1cc(C(F)(F)F)cc(N2[C@H](C(=O)N(CC#Cc3cncc(S(N)(=O)=O)n3)c3ccc(F)c(C)c3)CCS2(=O)=O)n1 [compound 66] | 51 to 100 nM
Cc1cc(C(F)(F)F)cc(N2[C@H](C(=O)N(CC#Cc3ccc(F)c(C(C)C)n3)c3ccc(F)c(C)c3)CCS2(=O)=O)n1 [compound 94] | 51 to 100 nM
Cc1cc(C(F)(F)F)cc(N2[C@H](C(=O)N(CC#Cc3ncc(C(N)=O)cn3)c3ccc(F)c(C)c3)CCS2(=O)=O)n1 [compound 81] | > 101 nM
Cc1cc(C(F)(F)F)cc(N2[C@H](C(=O)N(CC#Cc3cnc(N4C[C@H](C)N[C@@H](C)C4)cn3)c3ccc(F)c(C)c3)CCS2(=O)=O)n1 [compound 52] | 1 to 50 nM
Cc1cc(C(F)(F)F)cc(N2[C@H](C(=O)N(CC#Cc3ccc(C(N)=O)nc3)c3ccc(F)c(C)c3)CCS2(=O)=O)n1 [compound 95] | 1 to 50 nM
Cc1cc(C(F)(F)F)cc(N2[C@H](C(=O)N(CC#Cc3ccc(C#N)nc3)c3ccc(F)c(C)c3)CCS2(=O)=O)n1 [compound 115] | 1 to 50 nM
Cc1cc(C(F)(F)F)cc(N2[C@H](C(=O)N(CC#Cc3cncc(C(N)=O)n3)c3ccc(F)c(C)c3)CCS2(=O)=O)n1 [compound 63] | 1 to 50 nM
Cc1cc(C(F)(F)F)cc(N2[C@H](C(=O)N(CC#Cc3ccc(N)nn3)c3ccc(F)c(C)c3)CN(C(C)C)S2(=O)=O)n1 [compound 110] | 1 to 50 nM
Cc1cc(C(F)(F)F)cc(N2[C@H](C(=O)N(CC#Cc3nccnc3C(N)=O)c3ccc(F)c(C)c3)CCS2(=O)=O)n1 [compound 64] | 1 to 50 nM
Cc1cc(C(F)(F)F)cc(N2[C@H](C(=O)N(CC#Cc3cnc(C(N)=O)c(C)n3)c3ccc(F)c(C)c3)CCS2(=O)=O)n1 [compound 62] | 1 to 50 nM
Cc1cc(C(F)(F)F)cc(N2[C@H](C(=O)N(CC#Cc3ccc(Cn4cc5cccc(C(N)=O)c5n4)nc3)c3ccc(F)c(C)c3)CCS2(=O)=O)n1 [compound 136] | 1 to 50 nM
CCN1CCN(CC#CCN(C(=O)[C@@H]2CCC(=O)N2c2cc(C(F)(F)F)cc(C)n2)c2ccc(F)c(C)c2F)CC1 [compound 13] | 1 to 50 nM
CC(=O)Nc1cnc(C#CCN(C(=O)[C@@H]2CCS(=O)(=O)N2c2cc(C(F)(F)F)cc(C)n2)c2ccc(F)c(C)c2)cn1 [compound 34] | 1 to 50 nM
Cc1cc(C(F)(F)F)cc(N2[C@H](C(=O)N(CC#Cc3cnc(-c4c[nH]nn4)cn3)c3ccc(F)c(C)c3)CCS2(=O)=O)n1 [compound 56] | 1 to 50 nM
Cc1cc(C(F)(F)F)cc(N2[C@H](C(=O)N(CC#Cc3cncc(C(=O)N4CCNCC4)n3)c3ccc(F)c(C)c3)CCS2(=O)=O)n1 [compound 72] | 1 to 50 nM
Cc1cc(C(F)(F)F)cc(N2[C@H](C(=O)N(CC#Cc3ccc(C(N)=O)cc3)c3ccc(F)c(C)c3)CCS2(=O)=O)n1 [compound 105] | 1 to 50 nM
Cc1ccc(F)c(N(CC#Cc2cnc(N3CCOCC3)cn2)C(=O)[C@@H]2CCS(=O)(=O)N2c2cc(C(F)(F)F)cc(C)n2)c1 [compound 40] | 1 to 50 nM
Cc1cc(C(F)(F)F)cc(N2[C@H](C(=O)N(CC#Cc3cnc(C(N)=O)c(C#N)c3)c3ccc(F)c(C)c3)CCS2(=O)=O)n1 [compound 121] | 1 to 50 nM
Cc1cc(C(F)(F)F)cc(N2[C@H](C(=O)N(CC#Cc3ncc(C(N)=O)nc3C)c3ccc(F)c(C)c3)CCS2(=O)=O)n1 [compound 118] | 1 to 50 nM

Now from value to compound:

IC50 | Structure (SMILES)
1 to 50 nM | Cc1cc(C(F)(F)F)cc(N2[C@H](C(=O)N(CC#Cc3cnc(C(=O)O)cn3)c3ccc(F)c(C)c3)CCS2(=O)=O)n1 [compound 60]
1 to 50 nM | Cc1cc(C(F)(F)F)cc(N2[C@H](C(=O)N(CC#Cc3cccc(N4CCOCC4)n3)c3ccc(F)c(C)c3)CCS2(=O)=O)n1 [compound 86]
1 to 50 nM | Cc1cc(C(F)(F)F)cc(N2[C@H](C(=O)N(CC#Cc3cc(N4CCOCC4)ncn3)c3ccc(F)c(C)c3)CCS2(=O)=O)n1 [compound 75]
1 to 50 nM | C=CC(=O)Nc1ccc(C#CCN(C(=O)[C@@H]2CCS(=O)(=O)N2c2cc(C(F)(F)F)cc(C)n2)c2ccc(F)c(C)c2)nn1 [compound 129]
1 to 50 nM | Cc1cc(C(F)(F)F)cc(N2[C@H](C(=O)N(CC#Cc3ncc(C(N)=O)nn3)c3ccc(F)c(C)c3)CCS2(=O)=O)n1 [compound 124]
1 to 50 nM | Cc1cc(C(F)(F)F)cc(N2[C@H](C(=O)N(CC#Cc3ccc(C(N)=O)nn3)c3ccc(F)c(C)c3)CCS2(=O)=O)n1 [compound 29]
1 to 50 nM | C=CC(=O)Nc1cncc(C#CCN(C(=O)[C@@H]2CCS(=O)(=O)N2c2cc(C(F)(F)F)cc(C)n2)c2ccc(F)c(C)c2)c1 [compound 127]
1 to 50 nM | C=CC(=O)Nc1ccc(C#CCN(C(=O)[C@@H]2CCS(=O)(=O)N2c2cc(C(F)(F)F)cc(C)n2)c2ccc(F)c(C)c2)cn1 [compound 141, (S)-N-(3-(6-acrylamidopyridin-3-yl)prop-2-yn-1-yl)-N-(4-fluoro-3-methylphenyl)-2-(6-methyl-4-(trifluoromethyl)pyridin-2-yl)isothiazolidine-3-carboxamide 1,1-dioxide]
1 to 50 nM | Cc1cc(C(F)(F)F)cc(N2[C@H](C(=O)N(CC#Cc3cnc(N4CC5CCC(C4)O5)cn3)c3ccc(F)c(C)c3)CCS2(=O)=O)n1 [compound 48]
1 to 50 nM | Cc1cc(C(F)(F)F)cc(N2C(=O)CC[C@H]2C(=O)N(CC#Cc2ccc(F)cn2)c2ccc(F)c(C)c2)n1 [compound 8]
1 to 50 nM | C=CC(=O)Nc1ccnc(C#CCN(C(=O)[C@@H]2CCS(=O)(=O)N2c2cc(C(F)(F)F)cc(C)n2)c2ccc(F)c(C)c2)c1 [compound 138, (S)-N-(3-(4-acrylamidopyridin-2-yl)prop-2-yn-1-yl)-N-(4-fluoro-3-methylphenyl)-2-(6-methyl-4-(trifluoromethyl)pyridin-2-yl)isothiazolidine-3-carboxamide 1,1-dioxide]
1 to 50 nM | Cc1cc(C(F)(F)F)cc(N2[C@H](C(=O)N(CC#Cc3cnc4c(c3)CN(C)C4=O)c3ccc(F)c(C)c3)CCS2(=O)=O)n1 [compound 98]
1 to 50 nM | Cc1cc(C(F)(F)F)cc(N2[C@H](C(=O)N(CC#Cc3ccc(N)nn3)c3ccc(F)c(C)c3)CCS2(=O)=O)n1 [compound 18]
1 to 50 nM | Cc1cc(C(F)(F)F)cc(N2[C@H](C(=O)N(CC#Cc3nc(C(N)=O)co3)c3ccc(F)c(C)c3)CCS2(=O)=O)n1 [compound 104]
1 to 50 nM | Cc1cc(C(F)(F)F)cc(N2C(=O)CC[C@H]2C(=O)N(CC#Cc2cccc(=O)[nH]2)c2ccc(F)c(C)c2)n1 [compound 7]
1 to 50 nM | Cc1cc(C(F)(F)F)cc(N2[C@H](C(=O)N(CC#Cc3ccc(-c4ncon4)nc3)c3ccc(F)c(C)c3)CCS2(=O)=O)n1 [compound 116]
1 to 50 nM | Cc1cc(C(F)(F)F)cc(N2[C@H](C(=O)N(CC#Cc3cncc(C(=O)N4CCOCC4)n3)c3ccc(F)c(C)c3)CCS2(=O)=O)n1 [compound 70]

From patent US20260297083A1, “SUBSTITUTED ACETYLENE COMPOUND DERIVATIVES AND THEIR PHARMACEUTICAL USE” (AVELOS THERAPEUTICS INC., priority 2023, published 2026)
